Like-named read-outs stand apart in the source and are kept apart here.
Tests used:
Acetic acid bacteria = conditions: Part II, 1 g/l in apple juice pH 4.5, 25° C.
Yeasts = conditions: Part II, 1 g/l in apple juice pH 4.5, 25° C.
Molds II = conditions: Part II, 1 g/l in apple juice pH 4.5, 25° C.
Gram-negative bacteria = conditions: Part II, 1 g/l in apple juice pH 4.5, 25° C.
Gram-positive bacteria = conditions: Part II, 1 g/l in apple juice pH 4.5, 25° C.
Molds I = conditions: Part II, 1 g/l in apple juice pH 4.5, 25° C.
Lactic acid bacteria = conditions: Part II, 1 g/l in apple juice pH 4.5, 25° C.
Thermophilic bacilli = conditions: Part II, 1 g/l in apple juice pH 4.5, 25° C.
Clostridia = conditions: Part II, 1 g/l in apple juice pH 4.5, 25° C.
Bacilli = conditions: Part II, 1 g/l in apple juice pH 4.5, 25° C.
[1] = sealed
From the text: Salts prepared as in example 1 were dried, stored under the specified conditions without the addition of other substances and checked at regular intervals visually for discoloration: […]

[2] = 1 day after inoculation (2.8 × 10^4)
[3] = 3 days after inoculation (2.8 × 10^4)
[4] = 7 days after inoculation (2.8 × 10^4)
[5] = 14 days after inoculation (2.8 × 10^4)
[6] = 1 day after inoculation (2.6 × 10^4)
[7] = 3 days after inoculation (2.6 × 10^4)
[8] = 7 days after inoculation (2.6 × 10^4)
[9] = 14 days after inoculation (2.6 × 10^4)
[10] = 1 day after inoculation (2.5 × 10^4)
[11] = 3 days after inoculation (2.5 × 10^4)
[12] = 7 days after inoculation (2.5 × 10^4)
[13] = 14 days after inoculation (2.5 × 10^4)
[14] = 1 day after inoculation (2.7 × 10^4)
[15] = 3 days after inoculation (2.7 × 10^4)
[16] = 7 days after inoculation (2.7 × 10^4)
[17] = 14 days after inoculation (2.7 × 10^4)
[18] = 1 day after inoculation (2.1 × 10^4)
[19] = 3 days after inoculation (2.1 × 10^4)
[20] = 7 days after inoculation (2.1 × 10^4)
[21] = 14 days after inoculation (2.1 × 10^4)
[22] = 1 day after inoculation (2.2 × 10^4)
[23] = 3 days after inoculation (2.2 × 10^4)
[24] = 7 days after inoculation (2.2 × 10^4)
[25] = 14 days after inoculation (2.2 × 10^4)
[26] = 1 day after inoculation (1.3 × 10^4)
[27] = 3 days after inoculation (1.3 × 10^4)
[28] = 7 days after inoculation (1.3 × 10^4)
[29] = 14 days after inoculation (1.3 × 10^4)
[30] = 1 day after inoculation (2.9 × 10^4)
[31] = 3 days after inoculation (2.9 × 10^4)
[32] = 7 days after inoculation (2.9 × 10^4)
[33] = 14 days after inoculation (2.9 × 10^4)
[34] = 1 day after inoculation (3.3 × 10^4)
[35] = 3 days after inoculation (3.3 × 10^4)
[36] = 7 days after inoculation (3.3 × 10^4)
[37] = 14 days after inoculation (3.3 × 10^4)

## C/C=C/C=C/C(=O)[O-].O=C[O-].[Ca+2]
Acetic acid bacteria; [2]
  Number of surviving microorganisms per g of contaminated sample, Acetic acid bacteria: 2.1 × 10^4 CFU/g
Acetic acid bacteria; [3]
  Number of surviving microorganisms per g of contaminated sample, Acetic acid bacteria: 1.6 × 10^4 CFU/g
Acetic acid bacteria; [4]
  Number of surviving microorganisms per g of contaminated sample, Acetic acid bacteria: 7.6 × 10^3 CFU/g
Acetic acid bacteria; [5]
  Number of surviving microorganisms per g of contaminated sample, Acetic acid bacteria: 2.6 × 10^4 CFU/g
Yeasts; [6]
  Number of surviving microorganisms per g of contaminated sample, Yeasts: 1.3 × 10^4 CFU/g
Yeasts; [7]
  Number of surviving microorganisms per g of contaminated sample, Yeasts: 4.3 × 10^3 CFU/g
Yeasts; [8]
  Number of surviving microorganisms per g of contaminated sample, Yeasts: <100 CFU/g
Yeasts; [9]
  Number of surviving microorganisms per g of contaminated sample, Yeasts: <10 CFU/g
Molds II; [10]
  Number of surviving microorganisms per g of contaminated sample, Molds II: 3.9 × 10^3 CFU/g
Molds II; [11]
  Number of surviving microorganisms per g of contaminated sample, Molds II: <100 CFU/g
Molds II; [12]
  Number of surviving microorganisms per g of contaminated sample, Molds II: <10 CFU/g
Molds II; [13]
  Number of surviving microorganisms per g of contaminated sample, Molds II: <10 CFU/g
Gram-negative bacteria; [14]
  Number of surviving microorganisms per g of contaminated sample, Gram-negative bacteria: 1.7 × 10^4 CFU/g
Gram-negative bacteria; [15]
  Number of surviving microorganisms per g of contaminated sample, Gram-negative bacteria: 2.5 × 10^3 CFU/g
Gram-negative bacteria; [16]
  Number of surviving microorganisms per g of contaminated sample, Gram-negative bacteria: 2.0 × 10^3 CFU/g
Gram-negative bacteria; [17]
  Number of surviving microorganisms per g of contaminated sample, Gram-negative bacteria: <10 CFU/g
Gram-positive bacteria; [18]
  Number of surviving microorganisms per g of contaminated sample, Gram-positive bacteria: 2.1 × 10^4 CFU/g
Gram-positive bacteria; [19]
  Number of surviving microorganisms per g of contaminated sample, Gram-positive bacteria: 8.5 × 10^3 CFU/g
Gram-positive bacteria; [20]
  Number of surviving microorganisms per g of contaminated sample, Gram-positive bacteria: 6.8 × 10^2 CFU/g
Gram-positive bacteria; [21]
  Number of surviving microorganisms per g of contaminated sample, Gram-positive bacteria: <10 CFU/g
All microorganisms used; 1 g/l in apple juice pH 4.5, up to 14 days
  Preservative action against the microorganisms used: acts well and persistently against all microorganisms used, except for acetic acid bacteria and bacilli
All microorganisms used; same concentration, 1 g/l in apple juice pH 4.5
  Preservative action compared with the single salts: acts surprisingly better than calcium formate (in particular against lactic acid bacteria, yeasts and molds) or calcium sorbate (in particular against Gram-negative bacteria) used alone
Molds I; [22]
  Number of surviving microorganisms per g of contaminated sample, Molds I: 3.8 × 10^3 CFU/g
Molds I; [23]
  Number of surviving microorganisms per g of contaminated sample, Molds I: 2.0 × 10^2 CFU/g
Molds I; [24]
  Number of surviving microorganisms per g of contaminated sample, Molds I: 25 CFU/g
Molds I; [25]
  Number of surviving microorganisms per g of contaminated sample, Molds I: 10 CFU/g
Lactic acid bacteria; [14]
  Number of surviving microorganisms per g of contaminated sample, Lactic acid bacteria: 3.9 × 10^3 CFU/g
Lactic acid bacteria; [15]
  Number of surviving microorganisms per g of contaminated sample, Lactic acid bacteria: 1.5 × 10^3 CFU/g
Lactic acid bacteria; [16]
  Number of surviving microorganisms per g of contaminated sample, Lactic acid bacteria: <10 CFU/g
Lactic acid bacteria; [17]
  Number of surviving microorganisms per g of contaminated sample, Lactic acid bacteria: <10 CFU/g
Thermophilic bacilli; [26]
  Number of surviving microorganisms per g of contaminated sample, Thermophilic bacilli: 2.0 × 10^3 CFU/g
Thermophilic bacilli; [27]
  Number of surviving microorganisms per g of contaminated sample, Thermophilic bacilli: 3.0 × 10^2 CFU/g
Thermophilic bacilli; [28]
  Number of surviving microorganisms per g of contaminated sample, Thermophilic bacilli: <10 CFU/g
Thermophilic bacilli; [29]
  Number of surviving microorganisms per g of contaminated sample, Thermophilic bacilli: <10 CFU/g
Clostridia; [30]
  Number of surviving microorganisms per g of contaminated sample, Clostridia: 1.1 × 10^3 CFU/g
Clostridia; [31]
  Number of surviving microorganisms per g of contaminated sample, Clostridia: <100 CFU/g
Clostridia; [32]
  Number of surviving microorganisms per g of contaminated sample, Clostridia: 100 CFU/g
Clostridia; [33]
  Number of surviving microorganisms per g of contaminated sample, Clostridia: <10 CFU/g
Bacilli; [34]
  Number of surviving microorganisms per g of contaminated sample, Bacilli: 3.2 × 10^3 CFU/g
Bacilli; [35]
  Number of surviving microorganisms per g of contaminated sample, Bacilli: 1.8 × 10^3 CFU/g
Bacilli; [36]
  Number of surviving microorganisms per g of contaminated sample, Bacilli: 1.7 × 10^3 CFU/g
Bacilli; [37]
  Number of surviving microorganisms per g of contaminated sample, Bacilli: 1.8 × 10^3 CFU/g
[1]; dark at 7° C.
  Time after yellow-brown discoloration of a 1% strength aqueous solution: 12 months/>12 months
  Time after yellow-brown discoloration of the powder: >12 months />12 months
[1]; dark at 25° C.
  Time after yellow-brown discoloration of a 1% strength aqueous solution: 12 months/>12 months
  Time after yellow-brown discoloration of the powder: >12 months />12 months
[1]; under sunlight at 7° C.
  Time after yellow-brown discoloration of a 1% strength aqueous solution: 12 months/>12 months
  Time after yellow-brown discoloration of the powder: 12 months/>12 months
[1]; under sunlight at 25° C.
  Time after yellow-brown discoloration of a 1% strength aqueous solution: 12 months/>12 months
  Time after yellow-brown discoloration of the powder: 12 months/>12 months

## Calcium Sorbate
Acetic acid bacteria; [2]
  Number of surviving microorganisms per g of contaminated sample, Acetic acid bacteria: 1.5 × 10^4 CFU/g
Acetic acid bacteria; [3]
  Number of surviving microorganisms per g of contaminated sample, Acetic acid bacteria: 1.4 × 10^4 CFU/g
Acetic acid bacteria; [4]
  Number of surviving microorganisms per g of contaminated sample, Acetic acid bacteria: 2.0 × 10^4 CFU/g
Acetic acid bacteria; [5]
  Number of surviving microorganisms per g of contaminated sample, Acetic acid bacteria: 1.3 × 10^5 CFU/g
Yeasts; [6]
  Number of surviving microorganisms per g of contaminated sample, Yeasts: 2.3 × 10^4 CFU/g
Yeasts; [7]
  Number of surviving microorganisms per g of contaminated sample, Yeasts: 1.0 × 10^4 CFU/g
Yeasts; [8]
  Number of surviving microorganisms per g of contaminated sample, Yeasts: <100 CFU/g
Yeasts; [9]
  Number of surviving microorganisms per g of contaminated sample, Yeasts: <10 CFU/g
Molds II; [10]
  Number of surviving microorganisms per g of contaminated sample, Molds II: 6.5 × 10^3 CFU/g
Molds II; [11]
  Number of surviving microorganisms per g of contaminated sample, Molds II: <100 CFU/g
Molds II; [12]
  Number of surviving microorganisms per g of contaminated sample, Molds II: <10 CFU/g
Molds II; [13]
  Number of surviving microorganisms per g of contaminated sample, Molds II: <10 CFU/g
Gram-negative bacteria; [14]
  Number of surviving microorganisms per g of contaminated sample, Gram-negative bacteria: 1.7 × 10^4 CFU/g
Gram-negative bacteria; [15]
  Number of surviving microorganisms per g of contaminated sample, Gram-negative bacteria: 1.0 × 10^4 CFU/g
Gram-negative bacteria; [16]
  Number of surviving microorganisms per g of contaminated sample, Gram-negative bacteria: 1.9 × 10^3 CFU/g
Gram-negative bacteria; [17]
  Number of surviving microorganisms per g of contaminated sample, Gram-negative bacteria: 2.7 × 10^3 CFU/g
Gram-positive bacteria; [18]
  Number of surviving microorganisms per g of contaminated sample, Gram-positive bacteria: 2.1 × 10^4 CFU/g
Gram-positive bacteria; [19]
  Number of surviving microorganisms per g of contaminated sample, Gram-positive bacteria: 6.4 × 10^3 CFU/g
Gram-positive bacteria; [20]
  Number of surviving microorganisms per g of contaminated sample, Gram-positive bacteria: <10 CFU/g
Gram-positive bacteria; [21]
  Number of surviving microorganisms per g of contaminated sample, Gram-positive bacteria: <10 CFU/g
Molds I; [22]
  Number of surviving microorganisms per g of contaminated sample, Molds I: 3.9 × 10^3 CFU/g
Molds I; [23]
  Number of surviving microorganisms per g of contaminated sample, Molds I: <100 CFU/g
Molds I; [24]
  Number of surviving microorganisms per g of contaminated sample, Molds I: <10 CFU/g
Molds I; [25]
  Number of surviving microorganisms per g of contaminated sample, Molds I: <10 CFU/g
Lactic acid bacteria; [14]
  Number of surviving microorganisms per g of contaminated sample, Lactic acid bacteria: 3.4 × 10^3 CFU/g
Lactic acid bacteria; [15]
  Number of surviving microorganisms per g of contaminated sample, Lactic acid bacteria: 2.0 × 10^3 CFU/g
Lactic acid bacteria; [16]
  Number of surviving microorganisms per g of contaminated sample, Lactic acid bacteria: <100 CFU/g
Lactic acid bacteria; [17]
  Number of surviving microorganisms per g of contaminated sample, Lactic acid bacteria: <10 CFU/g
Thermophilic bacilli; [26]
  Number of surviving microorganisms per g of contaminated sample, Thermophilic bacilli: 1.4 × 10^3 CFU/g
Thermophilic bacilli; [27]
  Number of surviving microorganisms per g of contaminated sample, Thermophilic bacilli: 5.0 × 10^2 CFU/g
Thermophilic bacilli; [28]
  Number of surviving microorganisms per g of contaminated sample, Thermophilic bacilli: <10 CFU/g
Thermophilic bacilli; [29]
  Number of surviving microorganisms per g of contaminated sample, Thermophilic bacilli: <10 CFU/g
Clostridia; [30]
  Number of surviving microorganisms per g of contaminated sample, Clostridia: 2.2 × 10^3 CFU/g
Clostridia; [31]
  Number of surviving microorganisms per g of contaminated sample, Clostridia: <100 CFU/g
Clostridia; [32]
  Number of surviving microorganisms per g of contaminated sample, Clostridia: <10 CFU/g
Clostridia; [33]
  Number of surviving microorganisms per g of contaminated sample, Clostridia: <10 CFU/g
Bacilli; [34]
  Number of surviving microorganisms per g of contaminated sample, Bacilli: 2.8 × 10^3 CFU/g
Bacilli; [35]
  Number of surviving microorganisms per g of contaminated sample, Bacilli: 1.8 × 10^3 CFU/g
Bacilli; [36]
  Number of surviving microorganisms per g of contaminated sample, Bacilli: 1.3 × 10^3 CFU/g
Bacilli; [37]
  Number of surviving microorganisms per g of contaminated sample, Bacilli: 1.2 × 10^3 CFU/g

Reference: US6693216B2, “Calcium double salts” (Nutrinova Nutrition Specialties & Food Ingredients GmbH, priority 2000, dated 2004)
